Key:
human PPAR γ 2 [1] = target: T1, human PPAR γ 2 (Homo sapiens, UniProt P37231); assay: PPAR γ transcriptional activity, luciferase reporter, test compound alone; assay type: cell-based; settings: concentration indicating Emax/2, MG63 cells transfected with pSG5-hPPARg and pGV-P2-PPRE, 24 hr
T1 construct: expressed in transfected cells; host or cells: human osteosarcoma MG63, transiently co-transfected with pSG5-hPPARg and the reporter pGV-P2-PPRE
T1 sequence (P37231 1-505): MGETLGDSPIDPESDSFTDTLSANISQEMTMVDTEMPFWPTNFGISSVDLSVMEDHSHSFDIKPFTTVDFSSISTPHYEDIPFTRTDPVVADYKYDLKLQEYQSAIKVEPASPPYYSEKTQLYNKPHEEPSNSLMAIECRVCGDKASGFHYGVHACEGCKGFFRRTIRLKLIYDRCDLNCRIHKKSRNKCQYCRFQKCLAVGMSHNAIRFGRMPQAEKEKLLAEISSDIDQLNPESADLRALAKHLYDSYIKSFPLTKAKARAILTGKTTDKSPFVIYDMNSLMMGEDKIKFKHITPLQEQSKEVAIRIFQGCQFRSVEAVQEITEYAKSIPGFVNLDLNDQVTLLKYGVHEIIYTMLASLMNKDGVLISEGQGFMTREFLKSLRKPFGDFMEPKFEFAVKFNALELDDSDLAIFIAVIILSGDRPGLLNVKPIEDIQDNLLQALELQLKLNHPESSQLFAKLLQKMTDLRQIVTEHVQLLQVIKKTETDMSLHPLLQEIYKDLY
Outline: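 Human osteosarcoma MG63 cells transiently co-transfected with human PPARγ2 expression plasmid and PPRE-luciferase reporter (rat acyl-CoA oxidase promoter element), then exposed 24 h to test compound alone. Luciferase luminescence gave dose-response curves; EC50 is the concentration giving half of the compound's maximal activity (Emax).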

human PPAR γ 2 [2] = target: T1, human PPAR γ 2; assay: Inhibitory activity against PPAR γ transcription in the presence of agonist compound A, luciferase reporter; assay type: cell-based; settings: in the presence of 10 nM compound A (agonist); MG63 cells transfected with pSG5-hPPARg and pGV-P2-PPRE; 24 hr

Row | Molecule | EC50 (human PPAR γ 2 [1]) [nM] | IC50 (human PPAR γ 2 [2]) [nM]
1 | O=C(Nc1ccc(S(=O)(=O)Nc2nccs2)cc1)c1cc([N+](=O)[O-])ccc1Cl [Example 96, N-[4-(Thiazol-2-yl)aminosulfonyl]phenyl-(2-chloro-5-nitrophenyl)carboxamide] | 22 | 650
2 | Cc1cc(NS(=O)(=O)c2ccc(NC(=O)c3cc([N+](=O)[O-])ccc3Cl)cc2)no1 [Example 99] | 34 | 680
3 | O=C(Nc1ccc(S(=O)(=O)Nc2ccc(Cl)nn2)cc1)c1cc([N+](=O)[O-])ccc1Cl [Example 102, N-[4-[(6-Chloropyridazin-3-yl)aminosulfonyl]phenyl]-(2-chloro-5-nitrophenyl)carboxamide] | 43 | 490
4 | COc1cnc(NS(=O)(=O)c2ccc(NC(=O)c3cc([N+](=O)[O-])ccc3Cl)cc2)nc1 [Example 105, N-[4-[(5-Methoxypyrimidin-2-yl)aminosulfonyl]phenyl]-(2-chloro-5-nitrophenyl)carboxamide] | 87 | 710
5 | N=C(N)NS(=O)(=O)c1ccc(NC(=O)c2cc([N+](=O)[O-])ccc2Cl)cc1 [Example 106, N-[4-(Amidinoaminosulfonyl)phenyl]-(2-chloro-5-nitrophenyl)carboxamide] | 49 | 360
6 | O=C(Nc1ccc(S(=O)(=O)Nc2ccnn2-c2ccccc2)cc1)c1cc([N+](=O)[O-])ccc1Cl [Example 108, N-[4-[(2-Phenyl-(2H)-pyrazol-3-yl)aminosulfonyl]phenyl]-(2-chloro-5-nitrophenyl)carboxamide] | 57 | 59
7 | O=C(Nc1nnc(-c2ccccc2)s1)c1cc([N+](=O)[O-])ccc1Cl [Example 110, N-(5-Phenyl-[1,3,4]thiadiazol-2-yl)-(2-chloro-5—nitrophenyl)carboxamide] | 15 | 190
8 | O=C(Nc1nc(-c2ccc(F)c(F)c2)cs1)c1cc([N+](=O)[O-])ccc1Cl [Example 111, N-[4-(3,4-Difluorophenyl)thiazol-2-yl]-(2-chloro-5-nitrophenyl)carboxamide] | 79 | 27
9 | Cc1ccc(S(=O)(=O)Nc2ccc(NC(=O)c3cc([N+](=O)[O-])ccc3Cl)cc2)cc1 [Example 116, N-[4-(4-Toluenesulfonylamino)phenyl]-(2-chloro-5-nitrophenyl)carboxamide] | 11 | 55
10 | CC(=O)Nc1ccc(NC(=O)c2cc([N+](=O)[O-])ccc2Cl)cc1 [Example 117, N-(4-Acetylaminophenyl)-(2-chloro-5-nitrophenyl)carboxamide] | 8.7 | 120
11 | O=C(Nc1ccc(NC(=O)c2cc([N+](=O)[O-])ccc2Cl)cc1)c1ccccc1 [Example 119, N-(4-Benzoylaminophenyl)-(2-chloro-5-nitrophenyl)carboxamide] | 21 | 36
12 | O=C(Nc1ccc(NC(=O)c2cc([N+](=O)[O-])ccc2Cl)cc1)c1ccncc1 [Example 125, N-[4-(Pyridin-4-ylcarbonylamino)phenyl]-(2-chloro-5-nitrophenyl)carboxamide] | 19 | 240
13 | CCCCCCN(CCCCCC)c1ccc(NC(=O)c2cc([N+](=O)[O-])ccc2Cl)cc1 [Example 138, N-[4-(N,N-di-n-Hexylamino)phenyl]-(2-chloro-5-nitrophenyl)carboxamide] | 130 | 20
14 | CC(C)(C)c1cc(C(=O)Nc2ccc(NC(=O)c3cc([N+](=O)[O-])ccc3Cl)cc2)cc(C(C)(C)C)c1O [Example 157, N-[4-[(3,5-di-tert-Butyl-4-hydroxybenzoyl)amino]phenyl]-(2-chloro-5-nitrophenyl)carboxamide] | 760 | 23
15 | CN(C)c1cccc(NC(=O)c2cc([N+](=O)[O-])ccc2Cl)c1 [Example 176, N-(3-Dimethylamino)phenyl-(2-chloro-5-nitrophenyl)carboxamide] | 11 | 66
16 | O=C(Nc1ccc(S(=O)(=O)Nc2cccnc2)cc1)c1cc([N+](=O)[O-])ccc1Cl [Example 178] | 16 | 330
17 | N-[4-(Pyrrolidinylsulfonyl)phenyl]-(2-chloro-5-nitrophenyl)carboxamide [Example 152] | 8.7 | 42

Now from value to molecule:

Row | EC50 (human PPAR γ 2 [1]) [nM] | IC50 (human PPAR γ 2 [2]) [nM] | Molecule
18 | 780 | 56 | O=C(Nc1ccc(S(=O)(=O)Nc2ccc(N3CCOCC3)cc2)cc1)c1cc([N+](=O)[O-])ccc1Cl [Example 179, N-[4-[4-(Morpholin-4-yl)phenyl]aminosulfonyl]phenyl-(2-chloro-5-nitrophenyl)carboxamide]
19 | 5.6 | 20 | CCCNc1ccc(NC(=O)c2cc([N+](=O)[O-])ccc2Cl)cc1 [Example 181, N-[4-(N-Propylamino)phenyl]-(2-chloro-5-nitrophenyl)carboxamide]
20 | 0.7 | 3.6 | CCCN(CC)c1ccc(NC(=O)c2cc([N+](=O)[O-])ccc2Cl)cc1 [Example 189, N-[4-(N-Ethyl-N-propylamino)phenyl]-(2-chloro-5-nitrophenyl)carboxamide]
21 | 4.2 | 30 | O=C(Nc1cccc(O)c1)c1cc([N+](=O)[O-])ccc1Cl [Example 191, N-(3-Hydroxyphenyl)-(2-chloro-5-nitrophenyl)carboxamide]
22 | 610 | 56 | CCN(c1ccc(NS(=O)(=O)c2ccc(NC(=O)c3cc([N+](=O)[O-])ccc3Cl)cc2)cc1)C(C)C [Example 232, N-[[4-[4-(N-Ethyl-N-isopropylamino)phenyl]aminosulfonyl]phenyl]-(2-chloro-5-nitrophenyl)carboxamide]
23 | 44 | 52 | CC(O)c1cccc(NC(=O)c2cc([N+](=O)[O-])ccc2Cl)c1 (stereo not shown) [Example 239, N-[3-(1-Hydroxyethyl)phenyl]-(2-chloro-5-nitrophenyl)carboxamide]
24 | 120 | 130 | O=C(Nc1ccc(NC(=S)Nc2cccnc2)cc1)c1cc([N+](=O)[O-])ccc1Cl [Example 257, N-[4-[(Pyridin-3-yl)aminothiocarbonylamino]phenyl]-(2-chloro-5-nitrophenyl)carboxamide]
25 | 0.7 | 31 | O=C(Nc1ccc(NC(=S)Nc2ccncc2)cc1)c1cc([N+](=O)[O-])ccc1Cl [Example 259, N-[4-[(Pyridin-4-yl)aminothiocarbonylamino]phenyl]-(2-chloro-5-nitrophenyl)carboxamide]
26 | 160 | 46 | N-(Ethoxyphenyl)-(2-chloro-5-nitrophenyl)carboxamide [Example 229]

From patent US20030134859A1 (SANKYO COMPANY, LIMITED, priority 2000, published 2003)
